The nature of assay [1]: Late stage counterscreen for inhibitors of Trypanosoma brucei methionyl tRNA synthetase (MetRS): Luminescence-based cell-based high throughput dose response assay to identify compounds that are cytotoxic to Jurkat human T lymphocyte cells. The assay is classed as functional. Background: A counterscreen serves to expose hits that act by an unwanted route or on another target.

Assay [2] concerns the target T1, Methionyl-tRNA synthetase, putative (Trypanosoma brucei brucei, UniProt Q38C91).
T1 sequence (Q38C91 whole entry): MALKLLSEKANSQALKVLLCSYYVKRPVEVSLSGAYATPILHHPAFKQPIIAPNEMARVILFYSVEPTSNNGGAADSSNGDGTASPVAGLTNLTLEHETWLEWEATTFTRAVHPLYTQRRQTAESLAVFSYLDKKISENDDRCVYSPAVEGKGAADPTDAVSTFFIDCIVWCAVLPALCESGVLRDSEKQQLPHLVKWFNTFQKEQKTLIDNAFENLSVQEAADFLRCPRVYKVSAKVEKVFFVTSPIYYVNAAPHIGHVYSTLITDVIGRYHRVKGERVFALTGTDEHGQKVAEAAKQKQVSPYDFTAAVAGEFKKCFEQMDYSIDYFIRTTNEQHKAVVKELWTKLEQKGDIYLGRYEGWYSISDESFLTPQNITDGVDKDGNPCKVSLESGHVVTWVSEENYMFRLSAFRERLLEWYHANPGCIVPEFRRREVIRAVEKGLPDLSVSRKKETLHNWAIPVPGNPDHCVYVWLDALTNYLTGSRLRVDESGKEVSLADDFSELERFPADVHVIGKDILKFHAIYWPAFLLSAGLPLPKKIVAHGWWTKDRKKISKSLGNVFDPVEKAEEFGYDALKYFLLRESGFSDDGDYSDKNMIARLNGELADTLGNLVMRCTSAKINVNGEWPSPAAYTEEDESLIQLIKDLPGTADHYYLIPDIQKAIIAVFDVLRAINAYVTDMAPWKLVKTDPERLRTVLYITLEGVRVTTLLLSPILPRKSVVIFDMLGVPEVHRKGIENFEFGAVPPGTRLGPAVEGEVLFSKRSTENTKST
The assay is classed as functional, Trypanosoma brucei brucei strain 927/4 GUTat10.1.

Assay [3] is described as follows: Counterscreen for inhibitors of Trypanosoma brucei methionyl tRNA synthetase (MetRS): Luminescence-based cell-based high throughput dose response assay to identify compounds that are cytotoxic to Jurkat human T lymphocyte cells. The assay is classed as functional.
Assay [4] deals with T1, Methionyl-tRNA synthetase, putative. The format is functional, Trypanosoma brucei brucei strain 927/4 GUTat10.1. The source holds these as a separate data set.
Assay [5] in a line: blockade of melanocortin 4 receptor signaling – cell-based, plate reader, cherry pick, counter-screen for LGR2 antagonist project, dose response (AID 743444).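 Further: transfected HEK 293 cells stimulated with alpha-MSH peptide; potency of inhibitors of the alpha-MSH evoked signal.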 The format is functional.
Assay [6] in a line: blockers of bursicon-stimulated LGR2 cAMP reporter – cell-based, HEK293, CRE-luciferase reporter, cherry pick, set 2, dose response (AID 743343).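 Further: transfected cells were stimulated with diluted bursicon conditioned medium after compound addition.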 The assay is classed as functional. For orientation: In a reporter assay the amount or activity of a reporter protein is the signal.
Assay [7] can be described thus: general cell-killing toxicity readout – plate reader, dry powder samples, cytotoxicity control for PAX8 inhibitor project, dose response (AID 743021). The format is functional, cell-based.
The target of the next assay is Paired box protein Pax-8 (Homo sapiens, UniProt Q06710). Briefly: PAX8 transcriptional activity inhibition in RMG-I – RMG-I cells, luciferase, cherry-pick, dose response (AID 687027).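 Further: luciferase reporter driven by Pax8 target thyroperoxidase promoter measured by SteadyGlo luminescence.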 The format is functional, cell-based.
The nature of assay [8]: blockers of HIV-1 ZM109 envelope-driven cell-cell fusion – HeLa effector, CEM target cells, luciferase, cherry-pick, dose response (AID 652058).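 Further: luciferase signal from HIV-1 Env mediated cell-cell fusion of effector and target cells.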 The format is functional, cell-based.
A short description of assay [9]: blockers of HIV-1 envelope-mediated cell-cell fusion – cherry-pick, dose response (AID 652057). The assay is classed as functional, cell-based.
The subject of a further assay is HEK293. Briefly: EBV LMP1 TES2 canonical NF-kB signalling blockers – cell-based, HEK293, luciferase, cherry-pick, dose response (AID 588343). The format is functional. The following applies: Homo sapiens.
Assay [10] in a line: HIV-1 AD8 envelope cell-cell fusion blockers – cherry-pick, dose response (AID 652062).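 Further: luciferase signal from cell-cell fusion driven by HIV-1 clade B AD8 Env; potency is for inhibitors of fusion seen as a drop in luminescence.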 The format is functional, cell-based.
Assay [11] can be described thus: toxicity toward HepG2 liver cells – cell-based, plate reader, cherry-pick, antagonist series, cytotoxicity control, dose response (AID 743416). The assay is classed as functional.
Assay [12] in a line: viability loss in HEK293 cells – cell-based, plate reader, cherry-picked samples, cytotoxicity control, dose response (AID 743446). The assay is classed as functional.
The nature of assay [13]: A549 cell cytotoxicity, dose response, cytotoxicity control, plate reader, cherry-pick, antagonist series (AID 743412). The format is functional, cell-based.
Assay [14] addresses T2, Corticotropin-releasing factor receptor 2/Corticotropin-releasing factor-binding protein (Homo sapiens, UniProt P24387+Q13324).
T2 sequence (Q13324 whole entry): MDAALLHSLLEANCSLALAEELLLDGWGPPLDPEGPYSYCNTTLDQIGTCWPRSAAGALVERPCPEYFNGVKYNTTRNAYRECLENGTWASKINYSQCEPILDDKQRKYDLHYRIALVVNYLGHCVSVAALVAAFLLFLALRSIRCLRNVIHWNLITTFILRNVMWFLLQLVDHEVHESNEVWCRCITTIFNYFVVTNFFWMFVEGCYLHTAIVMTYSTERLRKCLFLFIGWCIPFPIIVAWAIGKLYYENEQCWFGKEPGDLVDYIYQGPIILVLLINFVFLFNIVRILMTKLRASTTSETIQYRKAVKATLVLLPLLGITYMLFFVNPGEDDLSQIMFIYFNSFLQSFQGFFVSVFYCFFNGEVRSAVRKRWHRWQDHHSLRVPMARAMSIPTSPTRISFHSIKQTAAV
T2 sequence (P24387 whole entry): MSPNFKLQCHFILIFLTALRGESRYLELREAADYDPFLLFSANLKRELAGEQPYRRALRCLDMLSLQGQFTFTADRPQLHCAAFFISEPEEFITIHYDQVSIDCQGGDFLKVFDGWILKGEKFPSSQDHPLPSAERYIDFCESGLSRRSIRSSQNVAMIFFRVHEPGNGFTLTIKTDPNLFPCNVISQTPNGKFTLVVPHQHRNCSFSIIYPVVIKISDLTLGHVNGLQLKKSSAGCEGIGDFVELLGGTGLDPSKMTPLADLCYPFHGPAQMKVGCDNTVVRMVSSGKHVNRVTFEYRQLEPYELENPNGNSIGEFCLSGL
Briefly: activators of CRF receptor 2 with binding protein – uHTS hits, confirmation (AID 602473). The format is functional. The following applies: read-out: EC50_Mean.

A short description of assay [15]: off-target signal loss in HeLa-CEM21 co-culture – HeLa F-luc CTL cells, cherry-picked, counter-screen for HIV-1 Env fusion inhibitor project, dose response (AID 652040).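 Further: potency for signal decrease marking cytotoxic or nonspecific inhibition.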 The format is functional, cell-based.
A short description of assay [16]: viability loss in CEM21 cells – cell-based, CellTiter-Glo luminescence, cherry-picked, cytotoxicity control for viral fusion inhibitor project, dose response (AID 652042).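 Further: potency for signal decrease meaning cytotoxicity.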 The format is functional.
The nature of assay [17]: potency of ADAM10 substrate cleavage blockers – biochemical, QFRET, dose response (AID 743254).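 Further: ADAM10 enzyme with the DM2 quenched FRET peptide as substrate; EDANS fluorescence gain as the protease cuts the substrate; inhibitor potency against ADAM10 proteolytic activity.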
For assay [18], the target named is Disintegrin and metalloproteinase domain-containing protein 17 (Homo sapiens, UniProt P78536). Briefly: inhibition of ADAM17 substrate cleavage – biochemical, quenched FRET substrate, counter-screen for ADAM10 exosite inhibitor project, dose response (AID 743253).
The target of another assay is Estrogen receptor beta (Homo sapiens, UniProt Q92731).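 Further: recombinant ER-beta bound to coactivator SRC1 peptide in presence of estradiol agonist; inhibitors block coactivator peptide binding and lower the FRET signal.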
Assay [19] addresses E3 ubiquitin-protein ligase Mdm2 (Homo sapiens, UniProt Q00987). Briefly: MDM2-luc reporter signal enhancers, multi-concentration potency testing, MDM2 ubiquitin-protein ligase inhibitor program, whole-cell format, luminescence detection, 384-well microplate (AID 1394).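 Further: MDM2 E3 inhibitors raise luminescence so EC50 is for signal enhancement.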 The assay is classed as functional.
Assay [20] deals with Luciferin 4-monooxygenase (Photinus pyralis, UniProt P08659). Briefly: inhibition of purified Photinus pyralis luciferase – biochemical, luminescence, dose response (AID 1891).
The nature of assay [21]: Luminescence Cell-Based Dose Confirmation HTS to Identify Inhibitors of Platelet Dense Granule Release. [Related pubchem assays: 1663 (Primary HTS), 1678 (Summary of Project)]. The format is functional.

The structures appear in SMILES notation. The source made the active and inactive calls.

Disintegrin and metalloproteinase domain-containing protein 17, sequence (P78536 whole entry, the tested form may be a part): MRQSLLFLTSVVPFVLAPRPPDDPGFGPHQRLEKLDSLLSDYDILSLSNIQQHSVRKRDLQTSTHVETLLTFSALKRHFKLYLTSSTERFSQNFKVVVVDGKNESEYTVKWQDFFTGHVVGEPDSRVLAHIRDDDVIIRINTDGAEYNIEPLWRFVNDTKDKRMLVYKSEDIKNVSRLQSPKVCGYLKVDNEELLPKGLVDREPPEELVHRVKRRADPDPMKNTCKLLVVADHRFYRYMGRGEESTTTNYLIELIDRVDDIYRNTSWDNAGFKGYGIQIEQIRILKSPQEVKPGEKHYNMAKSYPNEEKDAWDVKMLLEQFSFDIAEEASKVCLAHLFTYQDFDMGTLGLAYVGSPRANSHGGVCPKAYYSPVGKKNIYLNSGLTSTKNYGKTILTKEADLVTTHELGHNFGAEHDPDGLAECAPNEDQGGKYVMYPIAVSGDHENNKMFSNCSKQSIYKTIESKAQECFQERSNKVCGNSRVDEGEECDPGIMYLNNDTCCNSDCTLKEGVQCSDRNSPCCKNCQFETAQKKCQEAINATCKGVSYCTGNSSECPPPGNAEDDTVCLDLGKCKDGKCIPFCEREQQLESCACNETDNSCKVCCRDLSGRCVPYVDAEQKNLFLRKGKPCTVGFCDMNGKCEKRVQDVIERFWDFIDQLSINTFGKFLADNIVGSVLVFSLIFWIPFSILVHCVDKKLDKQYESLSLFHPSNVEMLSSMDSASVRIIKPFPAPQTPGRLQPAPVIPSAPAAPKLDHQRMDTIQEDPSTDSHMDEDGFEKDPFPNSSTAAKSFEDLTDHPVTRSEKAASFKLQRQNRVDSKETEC
Estrogen receptor beta, sequence (Q92731 whole entry): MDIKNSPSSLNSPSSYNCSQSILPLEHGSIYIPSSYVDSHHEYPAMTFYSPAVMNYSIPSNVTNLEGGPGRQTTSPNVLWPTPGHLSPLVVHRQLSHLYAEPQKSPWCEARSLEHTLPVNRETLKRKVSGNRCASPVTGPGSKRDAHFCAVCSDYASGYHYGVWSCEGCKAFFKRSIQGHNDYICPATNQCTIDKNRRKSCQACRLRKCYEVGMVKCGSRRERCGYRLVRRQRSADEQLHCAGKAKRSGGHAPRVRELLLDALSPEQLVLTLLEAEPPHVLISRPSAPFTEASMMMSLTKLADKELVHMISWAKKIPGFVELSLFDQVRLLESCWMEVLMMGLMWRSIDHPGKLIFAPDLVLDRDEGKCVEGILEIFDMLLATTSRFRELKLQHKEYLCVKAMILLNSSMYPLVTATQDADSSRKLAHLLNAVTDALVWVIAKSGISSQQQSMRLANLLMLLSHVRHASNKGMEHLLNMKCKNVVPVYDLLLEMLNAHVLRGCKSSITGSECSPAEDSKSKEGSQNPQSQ
E3 ubiquitin-protein ligase Mdm2, sequence (Q00987 whole entry): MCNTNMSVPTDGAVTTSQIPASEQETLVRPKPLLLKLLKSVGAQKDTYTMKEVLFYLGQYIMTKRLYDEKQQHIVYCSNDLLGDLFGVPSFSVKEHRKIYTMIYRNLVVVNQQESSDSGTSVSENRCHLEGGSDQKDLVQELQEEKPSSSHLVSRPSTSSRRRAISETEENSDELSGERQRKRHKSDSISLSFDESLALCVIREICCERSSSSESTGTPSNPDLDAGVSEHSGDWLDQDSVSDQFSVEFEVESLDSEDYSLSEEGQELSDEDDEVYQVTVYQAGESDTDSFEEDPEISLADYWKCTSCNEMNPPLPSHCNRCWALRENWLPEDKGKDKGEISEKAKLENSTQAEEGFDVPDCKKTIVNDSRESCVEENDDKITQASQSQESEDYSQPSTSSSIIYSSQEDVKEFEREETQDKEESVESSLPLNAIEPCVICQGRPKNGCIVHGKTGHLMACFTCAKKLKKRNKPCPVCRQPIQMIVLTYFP
Paired box protein Pax-8, sequence (Q06710 whole entry, the tested form may be a part): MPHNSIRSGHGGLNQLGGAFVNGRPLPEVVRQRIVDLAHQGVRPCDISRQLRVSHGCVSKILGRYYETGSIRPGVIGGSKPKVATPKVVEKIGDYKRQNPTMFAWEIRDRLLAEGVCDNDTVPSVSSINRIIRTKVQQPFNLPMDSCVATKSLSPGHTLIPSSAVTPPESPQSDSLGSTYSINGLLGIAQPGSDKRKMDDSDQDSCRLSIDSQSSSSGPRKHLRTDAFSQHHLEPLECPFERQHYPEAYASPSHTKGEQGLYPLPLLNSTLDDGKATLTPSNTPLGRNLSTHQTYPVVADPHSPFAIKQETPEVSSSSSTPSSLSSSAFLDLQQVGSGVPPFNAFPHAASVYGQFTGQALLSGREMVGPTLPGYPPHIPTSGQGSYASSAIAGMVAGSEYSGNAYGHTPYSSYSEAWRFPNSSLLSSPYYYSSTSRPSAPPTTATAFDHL
Luciferin 4-monooxygenase, sequence (P08659 whole entry): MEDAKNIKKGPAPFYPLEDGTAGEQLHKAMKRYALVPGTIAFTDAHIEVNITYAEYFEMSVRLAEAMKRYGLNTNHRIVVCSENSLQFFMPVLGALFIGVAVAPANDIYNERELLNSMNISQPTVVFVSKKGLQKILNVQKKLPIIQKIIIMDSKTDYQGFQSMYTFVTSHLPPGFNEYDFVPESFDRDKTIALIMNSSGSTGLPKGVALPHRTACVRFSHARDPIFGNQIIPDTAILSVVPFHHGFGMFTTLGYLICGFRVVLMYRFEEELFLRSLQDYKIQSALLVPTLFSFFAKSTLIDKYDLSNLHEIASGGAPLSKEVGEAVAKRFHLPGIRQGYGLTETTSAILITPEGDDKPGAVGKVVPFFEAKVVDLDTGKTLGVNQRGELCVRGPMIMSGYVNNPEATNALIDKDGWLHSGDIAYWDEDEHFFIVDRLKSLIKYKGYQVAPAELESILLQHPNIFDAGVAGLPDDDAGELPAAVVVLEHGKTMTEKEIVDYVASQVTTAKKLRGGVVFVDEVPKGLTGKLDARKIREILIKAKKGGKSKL

Turning to `CC(C)(C)[C@@H]1C=C(C(=O)NCc2nc3ccccc3[nH]2)O[C@H](OCc2ccc(CO)cc2)C1`, in [1], the IC50 (in general, the midpoint of a concentration-inhibition curve) is > 83.3 µM (inactive).
Turning to `COc1ccc2[nH]c3nc(SCC(=O)Nc4ccc5c(c4)OCO5)nnc3c2c1`, the 50% inhibitory concentration (IC50) is 0.489 µM (active) in assay [2], 24.5 µM (inactive) in [3], 36.6 µM (inactive) in assay [1] and 1.33 µM (active) in [4].
With `C(=Cc1cnc2ccccc2n1)c1ccc2c(c1)OCO2`, the AC50 (usually the midpoint of the concentration-response curve, whichever way the signal moves) in assay [5] was 0.25 µM (active); in assay [6], 0.263 µM (active); in assay [7] it was 6.27 µM (active); on Paired box protein Pax-8, 2.92 µM (active); in assay [8], 13.5 µM (active); in [9] it was 2.05 µM (active). The half-maximal activity concentration (AC50) is 0.173 µM (active) in the assay with HEK293; 3.91 µM (active) in [10]; 24.6 µM (active) in [11]; 17 µM (active) in [12]; 10.7 µM (active) in assay [13]; 4.37 µM (active) in assay [15]. The AC50 in [16] is 42.1 µM (active). Besides, the EC50 in [14] was > 53 µM (inactive).
On to `CC(C)(C)c1ccc(-c2nnc(SCC(=O)Nc3ccc(S(=O)(=O)Nc4nccs4)cc3)n2-c2ccc(Cl)cc2)cc1`, for which the IC50 in assay [17] is 10.6 µM (inactive); in assay [18], > 69.5 µM (inactive).
Turning to `Cc1ccc(C(=S)NCS(=O)(=O)c2ccc(C)cc2)cc1`, the IC50 in [18] is 14.5 µM (inactive).
Take `O=C(OCC(=O)N1CCCC1)c1cncc(Br)c1`: the IC50 against Estrogen receptor beta is > 50 µM (not active).
With `COc1ccc2[nH]c3c(N4CC(C)OC(C)C4)ncnc3c2c1` (centres undefined), in [19], the EC50 is on record as 7.39 µM (not active).
Turning to `CC(C)CC(OC(=O)c1cccs1)C(=O)NCc1ccco1` (centres undefined), on Estrogen receptor beta, the half-maximal inhibitory concentration (IC50) is given as > 50 µM (not active).
As for `O=C(Cc1ccc(-n2c(=O)c3ccccc3n(Cc3ccccc3Cl)c2=O)cc1)NCC1CCCO1` (centres undefined), the EC50 is recorded as > 112 µM (not active) in assay [20], 8.14 µM (not active) in assay [19] and > 112 µM (not active) in assay [21].
For `O=C(Cn1cnc2ccccc21)Nc1cccc([N+](=O)[O-])c1`, the IC50 in assay [2] was 1.76 µM (active); in assay [3] it was 83.1 µM (inactive); in assay [1], > 83.3 µM (inactive); in assay [4], 3.47 µM (active).
Consider `CCCCn1c(SCc2nc(N)nc(Nc3ccccc3C)n2)nc2ccccc2c1=O`, for which the IC50 in [17] and in assay [18] was > 69.5 µM (inactive) throughout.

(Values after ChEMBL document CHEMBL1201862, “PubChem BioAssay data set” (2004).)
